In patent publication US20250304526A1, “HIGH AND MULTIPLE REDOX POTENTIAL, STABLE, AND SOLUBLE BIS-DIARYLAMINE DERIVATIVES AND USES THEREOF” (University of Kentucky Research Foundation, priority 2024, published 2025):

Assay: Solubility determination in pure acetonitrile by mass measurement
Format: physicochemical
Method: The solubility of the compounds in pure acetonitrile was determined by the mass measurement method described previously. Saturated solutions of each compound were prepared and filtered to remove any undissolved material. Afterwards, 3 mL of each solution were taken and added to previously weighed vials (the measurement was repeated three times for each solution, i.e. 3 vials for each solution). The vials were then stored open in a nitrogen-filled glove box to allow the slow evaporation of the solvent. After 10 days, acetonitrile was evaporated from all vials, leaving only the previously dissolved solid. The vials were then re-weighed and the mass of the solid was determined by subtracting the mass of the respective empty vial. The concentration of the compound was calculated from the mass of the dissolved solid and the volume of the sample placed into the vial.
The solubilities of 1-4 were examined in pure CH3CN using the mass measurement method.

solubility: virtually insoluble
SMILES: c1ccc(N(c2ccccc2)c2ccc(N(c3ccccc3)c3ccccc3)cc2)cc1 [A, N,N,N′,N′-Tetraphenyl-1,4-phenylenediamine, reference compound]
